Data on 15 compounds can be found in patent publication US20080312287A1, “Compound and Methods For the Treatment of Cancer and Malaria” (University of Washington, priority 2005, published 2008).

In assay [1] the target is T1, PfPFT (Plasmodium falciparum, UniProt Q8I503+Q8IHP6).
T1 sequence (Q8I503 1-521): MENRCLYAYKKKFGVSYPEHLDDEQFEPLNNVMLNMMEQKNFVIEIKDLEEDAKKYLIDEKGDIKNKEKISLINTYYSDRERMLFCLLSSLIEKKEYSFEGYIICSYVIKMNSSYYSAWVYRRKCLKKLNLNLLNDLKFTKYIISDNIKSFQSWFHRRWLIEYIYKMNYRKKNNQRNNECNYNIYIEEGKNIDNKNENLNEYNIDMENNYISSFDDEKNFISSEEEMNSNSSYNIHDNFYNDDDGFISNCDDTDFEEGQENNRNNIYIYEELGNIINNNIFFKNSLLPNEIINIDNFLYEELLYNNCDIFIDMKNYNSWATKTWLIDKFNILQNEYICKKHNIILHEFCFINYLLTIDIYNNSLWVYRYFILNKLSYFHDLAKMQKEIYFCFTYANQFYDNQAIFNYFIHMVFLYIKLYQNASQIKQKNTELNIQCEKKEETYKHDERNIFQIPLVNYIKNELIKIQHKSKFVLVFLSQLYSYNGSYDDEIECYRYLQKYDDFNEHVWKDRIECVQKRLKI
T1 sequence (Q8IHP6 1-923): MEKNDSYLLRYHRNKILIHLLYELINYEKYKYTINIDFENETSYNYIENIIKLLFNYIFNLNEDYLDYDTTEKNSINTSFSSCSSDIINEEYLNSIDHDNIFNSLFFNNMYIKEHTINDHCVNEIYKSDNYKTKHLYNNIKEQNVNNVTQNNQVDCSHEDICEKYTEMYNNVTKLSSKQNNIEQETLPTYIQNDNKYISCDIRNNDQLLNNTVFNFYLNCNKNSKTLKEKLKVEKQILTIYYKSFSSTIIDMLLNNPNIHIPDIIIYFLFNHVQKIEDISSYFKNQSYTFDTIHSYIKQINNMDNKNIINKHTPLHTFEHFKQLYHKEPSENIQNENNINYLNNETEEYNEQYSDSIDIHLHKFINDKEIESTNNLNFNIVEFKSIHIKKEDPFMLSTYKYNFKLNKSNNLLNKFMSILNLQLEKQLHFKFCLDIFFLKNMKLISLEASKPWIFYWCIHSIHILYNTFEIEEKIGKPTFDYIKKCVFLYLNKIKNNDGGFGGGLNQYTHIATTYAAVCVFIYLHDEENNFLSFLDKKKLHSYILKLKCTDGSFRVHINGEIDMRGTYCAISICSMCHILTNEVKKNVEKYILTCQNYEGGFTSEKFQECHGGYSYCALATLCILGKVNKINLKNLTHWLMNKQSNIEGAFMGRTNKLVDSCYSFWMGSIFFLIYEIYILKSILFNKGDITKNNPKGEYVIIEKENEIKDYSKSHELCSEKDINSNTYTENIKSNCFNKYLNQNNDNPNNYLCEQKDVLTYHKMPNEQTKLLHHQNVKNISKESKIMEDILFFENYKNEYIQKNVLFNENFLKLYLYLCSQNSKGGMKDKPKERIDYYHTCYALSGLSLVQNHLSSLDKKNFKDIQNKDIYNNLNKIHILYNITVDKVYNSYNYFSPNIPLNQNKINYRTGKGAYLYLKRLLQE
Description: PfPFT inhibition, scintillation proximity assay with partially purified PfPFT. The following applies: for inhibition at 0.05 µM: read-out: % Inhibition of PfPFT at 50 nM, inhibitor at 50 nM; for inhibition at 0.005 µM: read-out: % Inhibition of PfPFT at 5 nM, inhibitor at 5 nM. The class given is biochemical. (SPA uses beads or plates that emit light when radiolabelled molecules are held near them.)

In assay [2] the test system is P. falciparum K1. Description: P. falciparum ED50 determination, [3H]-hypoxanthine incorporation, strain K1. In kind it is cell-based, Plasmodium falciparum. The text has this:
(§1) Plasmodium strains. The P. falciparum strains used in this study were 3D7 (Netherlands, sensitive) provided by Dr. Pradipsinh Rathod from the University of Washington and K1 (Thailand, ChQ-R, Pyr-R) obtained from the MR4Unit of the American Type Culture Collection (ATCC, Manassas, Va.).
(§2) P. falciparum culture. Strains of P. falciparum were sustained in vitro based on experimental techniques as described by Trager and Jensen.^26 Cultures were maintained in RPMI-1640 (Sigma, St. Louis, […].) with 2 mM L-glutamine, 25 mM HEPES, 33 mM NaHCO3, 20 μg/ml gentamicin sulfate and 20% (v/v) heat-inactivated human plasma type A+ (R^P-20P). Type A+ erythrocytes were obtained from lab donors, washed three times with RPMI, re-suspended in 50% RPMI, and stored at 4° C. Parasites were grown in 10 mL of a 2% hematocrit/RP-20P (v/v) in 50-mL flasks under a 5% CO2, 5% O2, and 90% N2 atmosphere.
(§3) P. falciparum ED50 determination. One […]L of PFTI dissolved in DMSO was added to each well of a 96-well plate followed by the addition of 200 μL of P. falciparum culture at parasitemia and hematocrit of 0.5%. Plates were flushed with 5% CO2, 5% O2, and 90% N2 then incubated at 37° C. for 48 hr. [8-^3H]-hypoxanthine (0.3 μCi, 20 Ci/mmol, American Radiolabeled Chemicals) in 30 μL RP-20P was added to cultures and incubated for an additional 24 hours. Cells were harvested onto filter mats by a Multiharvester (Skatron, Sunnyvale, Calif.) and the radioactivity incorporated into the parasites was counted on a β-scintillation counter. The background level detected with uninfected erythrocytes was subtracted from the data. The ^3H-incorporation into infected RBCs with 1 μL DMSO vehicle alone represents 100% malaria growth. ED50 values were determined by linear regression analysis of the plots of ^3H-hypoxanthine incorporation versus concentration of compound.

The subject of assay [3] is P. falciparum 3D7. Description: P. falciparum ED50 determination, [3H]-hypoxanthine incorporation, strain 3D7. In kind it is cell-based, Plasmodium falciparum.
Excerpt: as §1, §2, §3

[4] abbreviates: Plasmodium falciparum, K1, strain K1, concentration decreasing hypoxanthine incorporation into parasites twofold, read-out: ED50 K1.
[5] abbreviates: Plasmodium falciparum, 3D7, strain 3D7, concentration decreasing hypoxanthine incorporation into parasites twofold, read-out: ED50 3D7.

Like-named read-outs stand apart in the source and are kept apart here.

The term inhibition denotes how much of the control response was suppressed. Take `Cn1cnc(S(=O)(=O)N(CCN(Cc2cnc[nH]2)c2ccccc2)Cc2ccccc2)c1` [Compound 3c, 1-Methyl-1H-imidazole-4-sulfonic acid benzyl-{2-[(3H-imidazol-4-ylmethyl)-phenyl-amino]-ethyl}-amide]: the inhibition at 0.05 µM in assay [1] came to 32%.

For `Cc1ccc(CS(=O)(=O)N(CCN(Cc2cnc[nH]2)c2ccccc2)Cc2ccccc2)cc1` [Compound 3d, N-Benzyl-N-{2-[(3H-imidazol-4-ylmethyl)-phenyl-amino]-ethyl}-C-p-tolyl-methanesulfonamide], the inhibition at 0.05 µM in assay [1] was determined as 3%.

For `O=S(=O)(c1ccc2ccccc2c1)N(CCN(Cc1cnc[nH]1)c1ccccc1)Cc1ccccc1` [Compound 3e, Naphthalene-2-sulfonic acid benzyl-{2-[(3H-imidazol-4-ylmethyl)-phenyl-amino]-ethyl}-amide], the inhibition at 0.05 µM in assay [1] stood at 0%.

With `O=S(=O)(c1cccc2cccnc12)N(CCN(Cc1cnc[nH]1)c1ccccc1)Cc1ccccc1` [Compound 3f, Quinoline-8-sulfonic acid benzyl-{2-[(3H-imidazol-4-ylmethyl)-phenyl-amino]-ethyl}-amide], the inhibition at 0.05 µM in assay [1] is 0%.

`CN(C)c1cccc2c(S(=O)(=O)N(CCN(Cc3cnc[nH]3)c3ccccc3)Cc3ccccc3)cccc12` [Compound 3g, 5-Dimethylamino-naphthalene-1-sulfonic acid benzyl-{2-[(3H-imidazol-4-ylmethyl)-phenyl-amino]-ethyl}-amide]: the inhibition at 0.05 µM in assay [1] came to 0%.

Consider `Cn1cnc(S(=O)(=O)N(CCN(Cc2cnc[nH]2)c2ccc(Br)cc2)Cc2ccccc2)c1` [Compound 8a, 1-Methyl-1H-imidazole-4-sulfonic acid benzyl-{2-[(4-bromo-phenyl)-(3H-imidazol-4-ylmethyl)-amino]-ethyl}-amide], for which the inhibition at 0.05 µM in assay [1] was determined as 80%.

For the compound `Cn1cnc(S(=O)(=O)N(CCN(Cc2cncn2C)c2ccc(C#N)cc2)Cc2cccnc2)c1` [Compound 8ab, 1-Methyl-1H-imidazole-4-sulfonic acid {2-[(4-cyano-phenyl)-(3-methyl-3H-imidazol-4-ylmethyl)-amino]-ethyl}-pyridin-3-ylmethyl-amide], the EC50 in assay [2] (setting [4]) is 4.25 µM. Further, the EC50 in assay [3] (setting [5]) came out at 2.8 µM. Further, in assay [1], the inhibition at 0.005 µM was 18% and the inhibition at 0.05 µM is 74%.

Consider `Cn1cnc(S(=O)(=O)N(CCN(Cc2cncn2C)c2ccc(C#N)cc2)Cc2ccncc2)c1` [Compound 8ac, 1-Methyl-1H-imidazole-4-sulfonic acid {2-[(4-cyano-phenyl)-(3-methyl-3H-imidazol-4-ylmethyl)-amino]-ethyl}-pyridin-4-ylmethyl-amide], for which the EC50 in assay [2] (setting [4]) stood at 5 µM. In assay [3] (setting [5]), the EC50 was found to be 3.7 µM. Further, in assay [1], the inhibition at 0.005 µM was 22% and the inhibition at 0.05 µM came to 62%.

For the compound `Cn1cnc(S(=O)(=O)N(CCN(Cc2cncn2C)c2ccc(C#N)cc2)Cc2cccc(C#N)c2)c1` [Compound 8ad, 1-Methyl-1H-imidazole-4-sulfonic acid (3-cyano-benzyl)-{2-[(4-cyano-phenyl)-(3-methyl-3H-imidazol-4-ylmethyl)-amino]-ethyl}-amidem-cyanobenzyl], the EC50 is 1.8 µM in assay [2] (strain K1, concentration decreasing hypoxanthine incorporation into parasites twofold, read-out: ED50 K1) and 0.35 µM in assay [3] (strain 3D7, concentration decreasing hypoxanthine incorporation into parasites twofold, read-out: ED50 3D7). Further, the “% Inhibition of PfPFT at 5 nM” value in assay [1] (inhibitor at 5 nM) is reported as 45%. Besides, the “% Inhibition of PfPFT at 50 nM” value in assay [1] (inhibitor at 50 nM) is reported as 89%.

Regarding `Cn1cnc(S(=O)(=O)N(CCN(Cc2cncn2C)c2ccc(C#N)cc2)Cc2cccc(-c3ccccc3)c2)c1` [Compound 8af, 1-Methyl-1H-imidazole-4-sulfonic acid biphenyl-3-ylmethyl-{2-[(4-cyano-phenyl)-(3-methyl-3H-imidazol-4-ylmethyl)-amino]-ethyl}-amide], the EC50 in assay [2] (setting [4]) is 3.25 µM. Besides, the EC50 in assay [3] (setting [5]) was found to be 2.4 µM. For the same compound, in assay [1], the inhibition at 0.005 µM stood at 56% and the inhibition at 0.05 µM stood at 93%.

As a reminder, the IC50 is the midpoint of a concentration-inhibition curve. Read a low IC50 as higher potency. Turning to `Cn1cnc(S(=O)(=O)N(CCN(Cc2cncn2C)c2ccc(C#N)cc2)Cc2ccc(-n3cccc3)cc2)c1` [Compound 8ai, 1-Methyl-1H-imidazole-4-sulfonic acid {2-[(4-cyano-phenyl)-(3-methyl-3H-imidazol-4-ylmethyl)-amino]-ethyl}-(4-pyrrol-1-yl-benzyl)-amide], the results for the EC50 in assay [2] (setting [4]) and in assay [3] (setting [5]) were 0.41 µM and 0.257 µM, respectively. The compound also had an IC50 in assay [1] (concentration decreasing transferase activity twofold) of 0.011 µM. Further, the inhibition at 0.005 µM in assay [1] is 39%. For the same compound, the inhibition at 0.05 µM in assay [1] was determined as 85%.

As to `Cn1cncc1CN(CCN(Cc1ccccc1)S(=O)(=O)c1cccs1)c1ccc(C#N)cc1` [Compound 8f, Thiophene-2-sulfonic acid benzyl-{2-[(4-cyano-phenyl)-(3-methyl-3H-imidazol-4-ylmethyl)-amino]-ethyl}-amide], in assay [2] (setting [4]), the EC50 came to 1.12 µM. Also, the EC50 in assay [3] (setting [5]) came to 0.55 µM. In addition, in assay [1], the inhibition at 0.005 µM was 17% and the inhibition at 0.05 µM is 74%.

In the case of `Cn1cncc1CN(CCN(Cc1ccccc1)S(=O)(=O)c1cccc2cccnc12)c1ccc(C#N)cc1` [Compound 8h, Quinoline-8-sulfonic acid benzyl-{2-[(4-cyano-phenyl)-(3-methyl-3H-imidazol-4-ylmethyl)-amino]-ethyl}-amide], the EC50 in assay [2] (setting [4]) came to 2.4 µM. For the same compound, in assay [3] (setting [5]), the EC50 amounted to 2.1 µM. In assay [1], the inhibition at 0.005 µM is 14% and the inhibition at 0.05 µM was 35%.

With `CC(=O)N(CCN(Cc1cncn1C)c1ccc(C#N)cc1)Cc1ccccc1` [Compound 8j, N-Benzyl-N-{2-[(4-cyano-phenyl)-(3-methyl-3H-imidazol-4-ylmethyl)-amino]-ethyl}-acetamide], the EC50 in assay [2] (Plasmodium falciparum, K1, read-out: ED50 K1) is greater than 5 µM. The EC50 in assay [3] (Plasmodium falciparum, 3D7, read-out: ED50 3D7) was 2.5 µM. Moreover, in assay [1], the inhibition at 0.005 µM stood at 0% and the inhibition at 0.05 µM was 56%.

As to `CC(C)C(=O)N(CCN(Cc1cncn1C)c1ccc(C#N)cc1)Cc1ccccc1` [Compound 8k, N-Benzyl-N-{2-[(4-cyano-phenyl)-(3-methyl-3H-imidazol-4-ylmethyl)-amino]-ethyl}-isobutyramide], in assay [2] (setting [4]), the EC50 is greater than 5 µM. For the same compound, in assay [3] (setting [5]), the EC50 was 2 µM. Besides, in assay [1], the inhibition at 0.005 µM was found to be 0% and the inhibition at 0.05 µM is 61%.
